Test results: patent US9248202B2, “Two-photon probe for detecting copper(II) ion and quantitative estimation of copper(II) ion in human tissue using the same” (Korea University Research and Business Foundation, priority 2014, dated 2016)
In brackets after ≈: the same amount, converted by molar mass.

Assays:
[1] = Selectivity of ACCu2 for copper(II) ion against competing metal ions; settings: ACCu2 3 μM; Na+, K+, Ca2+, Mg2+ 1 mM; transition metal ions 500 μM; then 200 μM Cu2+; EtOH/HEPES (9/1, pH 7.0)
Method: The black bars show the result obtained in the presence of alkali metal and alkaline earth metal ions Na^+, K^+, Ca^2+ and Mg^2+ (1 mM) and transition metal ions Mn^2+, Fe^2+, Co^2+, Ni^2+, Zn^2+, Pd^2+, Cd^2+ and […] in EtOH/HEPES (9/1 v/v, pH 7.0), and the white bars show the result obtained after further addition of 200 μM Cu^2+.

[2] = system: rat brain tissue; assay: Quantitative estimation of copper(II) ion in rat brain tissue slices by TPM
Method: Slices were prepared from the hippocampi and hypothalami of 2-day-old Sprague-Dawley (SD) rats. Coronal slices were cut into 400 μm thickness using a vibrating-blade microtome in artificial cerebrospinal fluid (ACSF; 138.6 mM NaCl, 3.5 mM KCl, 21 mM NaHCO3, 0.6 mM NaH2PO4, 9.9 mM D-glucose, 1 mM CaCl2 and 3 mM MgCl2). The slices were incubated with 20 μM ACCu2 in ACSF bubbled with 95% O2 and 5% CO2 for 30 minutes at 37° C. The slices were e then washed 3 times with ACSF, transferred to glass-bottomed dishes (MatTek) and observed with spectral confocal and rnultiphoton microscopy.
Because the structure of the brain tissue is heterogeneous, TPM images were acquired at depths of 90-190 μm to visualize the overall copper(II) on distribution.

[3] = system: human colon tissue; assay: Quantitative estimation of copper(II) ion in human colon tissue by TPM; settings: for average Ired/Iblue ratio: 20 μM ACCu2
Excerpt: Colon slices were obtained from outpatients who underwent elective colonoscopies at the Korea University Medical Center Anam Hospital. The volunteers were recruited to participate in the experiment, which was approved by the hospital ethics committee, and all the participating patients provided informed consents. The patients who had known or suspected bleeding disorders, an international normalized ratio of prothrombin time exceeding 1.4 a platelet count of <100,000 or who had taken aspirin within the previous 5 days were excluded.
During the colonoscopy examination, tissues were obtained from malignant lesions, adenomas and normal mucosa by biopsy forceps. Normal colon mucosal and adenoma or adenocarcinoma tissues were collected from the same patient. Standard biopsy forceps (Olympus Medical Systems Corporation, Tokyo, Japan) were used to obtain paired mucosal pinch biopsy specimens from the colon. 28, 10 and 6 tissue samples were acquired from normal, polyp and cancer tissues, respectively. The tissues were placed in sterile specimen bottles containing PBS. Half of the normal tissue samples were treated with EDTA (1 M) for 40 minutes. Then, the tissue samples were stained with 20 μM ACCu2 in artificial spinal fluid for 1-2 hours at 37.8° C. and then imaged.
As a result, clinical important images were obtained at depths of 90-190 μm in the mucosal and submucosal layers, as shown in FIG. 11(a).

[4] = Absorption and fluorescence spectra, quantum yield, energy transfer; type: physicochemical; settings: for φ (fluorescence quantum yield): uncertainty ± 15%; for λmax^abs: one-photon absorption; for λmax^t1: one-photon emission
Method: Absorption spectra were recorded using the Hewlett-Packard 8453 diode array spectrophotometer and fluorescence spectra were measured using the Amico-Bowman series 2 luminescence spectrometer a 1 cm standard quartz cell. The fluorescence quantum yield was determined using coumarin 307 and rhodamine B as references according to the literature method (J. N. Demas, G. A. Crosby, J. Phys. Chem. 1971, 75, 991).
(§1) (hereinafter, ‘ACCu2’), a compound of [Chemical Formula 12] (hereinafter, ‘FL’) and a compound of [Chemical Formula 13] (hereinafter, ‘IR’) in 1,4-dioxane, DMF, ethanol, EtOH/HEPES (9:1) and HEPES buffer ([HEPES]=20 mM, pH 7.0). Excitation wavelength was 420 nm. The solubility of ACCu2 in HEPES buffer ([HEPES]=20 mM, pH 7.0) as determined by the fluorescence method described in the literature (Kim, H. M.; Choo, H. J.; Jung, S. Y.; Ko, Y. G.; Park, W. H.; Jeon, S. J.; Kim, C. H.; Joo, T. H.; Cho, B. R. Chem Bio Chem 2007, 8, 553) was 8.0 μM, which was sufficient to stain cells.
To assess the origin of the spectral changes, the energy transfer efficiency (ETE) was calculated using Equation (1). The ETE was 93.4%.
In Equation (1), AIR and AIR′ are the absorbances of the IR moiety and IR, respectively, and FIR and FIR′ are the emission intensities of the IR moiety and IR, respectively, upon excitation at 373 nm.
The antenna effect in the one-photon (OP) (or TP) mode was 3.0 (or 3.1). The antenna effect was calculated by dividing the area of emission from the FL moiety upon excitation of the IR moiety at 373 nm (or 750 nm in the TP mode) by that collected from the direct excitation of FL at 461 nm (or 880 nm in the […]).

[5] = Solubility in HEPES buffer by fluorescence method; type: physicochemical; settings: aqueous buffer; HEPES buffer ([HEPES]=20 mM, pH 7.0)
Method: as §1

[6] = rat brain tissue, after copper(II) ion (500 μM) and PDTC (200 μM)
[7] = EDTA-treated normal colon tissue
[8] = one-photon, excitation 373 nm, EtOH/HEPES (9:1, pH 7.0)

φ (fluorescence quantum yield) ([4]; 1,4-Dioxane (0.164)): 0.75
red shift in the emission spectra with solvent polarity ([4]; 1,4-dioxane to H2O): 69 nm
φ (fluorescence quantum yield) ([4]; DMF (0.386)): 0.54
φ (fluorescence quantum yield) ([4]; EtOH (0.654)): 0.34
φ (fluorescence quantum yield) ([4]; EtOH/HEPES (9:1)): 0.22
energy transfer efficiency (ETE) ([4]; FRET from IR to FL moiety, excitation at 373 nm, Equation (1)): 93.4%
φ (fluorescence quantum yield) ([4]; HEPES buffer 20 mM, pH 7.0): 0.0028
antenna effect ([4]; TP mode, 750 nm vs direct excitation 880 nm): 3.1
antenna effect ([4]; one-photon (OP) mode, 373 nm vs direct excitation 461 nm): 3.0
λmax^abs ([4]; 1,4-Dioxane (0.164)): 380/437
λmax^abs ([4]; DMF (0.386)): 371/456
λmax^abs ([4]; EtOH (0.654)): 379/460
λmax^abs ([4]; EtOH/HEPES (9:1)): 379/465
λmax^abs ([4]; HEPES buffer 20 mM, pH 7.0): 380/453
λmax^t1 ([4]; 1,4-Dioxane (0.164)): 533 nm
λmax^t1 ([4]; DMF (0.386)): 577 nm
λmax^t1 ([4]; EtOH (0.654)): 578 nm
λmax^t1 ([4]; EtOH/HEPES (9:1)): 585 nm
λmax^t1 ([4]; HEPES buffer 20 mM, pH 7.0): 602 nm
decrease of area of blue emission (400-450 nm) from that of IR [4, 8]: 9.2 fold
increase of area of red emission (550-650 nm) from that of FL [4, 8]: 3.4 fold
decrease of blue emission ([4]; two-photon (TP) mode): 13 fold
increase of red emission ([4]; two-photon (TP) mode): 3.1 fold
solubility [5]: 8 µM (≈ 6.96 µg/mL)
SMILES: COCCOCCOCCOc1ccc2c(ccc3cc(C(=O)N4CCN(C(=O)c5ccc(CNC(=O)c6cc7cc8ccc(N(C)C)cc8cc7oc6=O)nc5)CC4)c(=O)oc32)c1 [ACCu2]
selectivity for Cu2+ in the presence of competing metal ions [1]: uninterrupted in the presence of the alkali metal, alkaline earth metal or transition metal ions
Ired/Iblue ratio ([2]; ACCu2 (20 μM)-labeled rat brain tissue, untreated): 9.9±0.5
Ired/Iblue ratio [2, 6]: 6.8±0.6
free copper ion concentration [2, 6]: 14 ± 1.5 µM
free copper(II) ion concentration ([2]; rat brain tissue, untreated): 0.0 ± 1.1 µM
copper(II) ion concentration [3, 7]: 0.0 ± 0.1 µM
average Ired/Iblue ratio [3, 7]: 10.0±0.3
copper(II) ion concentration ([3]; cancer colon tissue): 22 ± 3 µM
average Ired/Iblue ratio ([3]; cancer colon tissue): 5.2±0.6
copper(II) ion concentration ([3]; normal colon tissue): 8.2 ± 0.3 µM
average Ired/Iblue ratio ([3]; normal colon tissue): 8.3±0.4
copper(II) ion concentration ([3]; polyp colon tissue): 13 ± 2 µM
average Ired/Iblue ratio ([3]; polyp colon tissue): 7.2±0.5
